Reference: patent US8835644B2, “Broad spectrum benzothiophene-nitrothiazolide and other antimicrobials” (University of Virginia Patent Foundation, priority 2009, dated 2014)
In brackets after ≈: the same amount, converted by molar mass. Like-named read-outs stand apart in the source and are kept apart here.

Columns and labels:
C. difficile [1] = assay: MIC by agar dilution, C. difficile; format: cell-based, Clostridium difficile
Protocol: A standard broth dilution protocol was used in 96 well microplates containing a standard dilution of the microorganism to be tested in 100 microliters of the appropriate medium. Appropriate medium: E. coli, LB medium; Staphylococcus strains, Trypticase Soy; and for H. pylori and C. jejuni, Brain Heart Infusion. The compounds to be tested were set at 32 μg/ml in 200 microliters in well one and then serially diluted to provide a range from 32 to 0.06. The wells were scored visually at 24 h. The well where there was no growth was recorded as the MIC. […]
(§1) Representative compounds of the invention were tested in a series of assays against a series of organisms as described above. […] The organisms tested include, C. difficile, H. pylori, C. jejuni, MRSA, S. epidermidis, and E. coli. S. epidermidis and E. coli were tested in the plank and biofilm assay. A disk diffusion assay was also used for C. difficile. Direct PFOR enzyme assays were also performed. All analogues and derivatives were not tested on every organism in every type of assay (the “-” in each table means that it was not tested).

MRSA = assay: MIC testing by broth dilution, MRSA; format: cell-based, Staphylococcus aureus
Summary of the method: (§2)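 Values are broth-dilution MICs, defined as the well showing no growth on visual reading after 24 h; the tested range was 32 to 0.06 μg/ml, in organism-specific media (LB, Trypticase Soy, Brain Heart Infusion). The C. difficile entries come instead from anaerobic Kirby-Bauer disk zones, normalised to NTZ.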

H. pylori = assay: MIC testing by broth dilution, H. pylori; format: cell-based, Helicobacter pylori
Summary of the method: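 Helicobacter pylori was tested using a standard broth dilution method in 96 well microplates, each well holding a standard dilution of the organism in 100 microliters of Brain Heart Infusion. Compounds started at 32 μg/ml in 200 microliters in the first well and were serially diluted from 32 to 0.06. Wells were read visually at 24 h, and the MIC was the well with no growth.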

[2] = test system: PFOR (pyruvate ferredoxin oxidoreductase); assay: Direct PFOR enzyme assay; format: biochemical
Protocol: as §1

E. coli = assay: MIC testing by broth dilution, E. coli plank; format: cell-based, Escherichia coli
Summary of the method: as §2

S. epidermidis = assay: MIC testing by broth dilution, S. epidermidis plank; format: cell-based, Staphylococcus epidermidis; details: broth dilution, Trypticase Soy, 24 h; read-out: MIC (μM) S. epidermidis Plank
Summary of the method: as §2

C. jejuni = assay: MIC testing by broth dilution, C. jejuni; format: cell-based, Campylobacter jejuni
Summary of the method: as §2

S. epidermidis biofilm = S. epidermidis biofilm assay (activity tables); format: cell-based, Staphylococcus epidermidis
Summary of the method: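 Overnight TSB cultures diluted to OD600 0.01 and grown static with compound (triplicate) at 37° C for 16 h; turbidity recorded for growth. Biofilm: washed wells ethanol-fixed, stained with 0.5% crystal violet, A570 read before and after 95% ethanol extraction; mean ± SD.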

E. coli biofilm = E. coli biofilm assay (activity tables); format: cell-based, Escherichia coli; details: biofilm
Summary of the method: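 E. coli strain 042 inoculated 1:100 with NTZ-containing medium and grown statically at 37 °C for 24 h. Growth measured by turbidity or plate counts (cfu/ml); biofilm stained with 0.5% crystal violet and read at 570 nm; triplicate, mean ± SD.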

C. difficile [3] = assay: Disk diffusion (Kirby Bower), C. difficile; format: cell-based, Clostridium difficile; details: for Disk Diffusion (%) C. difficile: zone of inhibited growth as relative ratio to the zone for NTZ
Summary of the method: as §2

[4] = agar dilution, anaerobic, Wilkins Chalgrin agar, read-out: MIC (μM) C. difficile
[5] = broth dilution, Trypticase Soy, 24 h, read-out: MIC (μM) MRSA
[6] = broth dilution, Brain Heart Infusion, 24 h, read-out: MIC (μM) H. pylori
[7] = broth dilution, LB medium, 24 h, read-out: MIC (μM) E. coli Plank
[8] = broth dilution, Brain Heart Infusion, 24 h, read-out: MIC (μM) C. jejuni
[9] = read-out: MIC (μM) E. coli Biofilm

| MIC (C. difficile [1]; Clostridioides difficile, Thiophene analogues table, read-out: MIC C. difficile) | MIC (MRSA; Staphylococcus aureus, MRSA, Thiophene analogues table, read-out: MIC MRSA) | MIC (H. pylori; Helicobacter pylori, Thiophene analogues table, read-out: MIC H. pylori) | PFOR inhibition relative to nitazoxanide (=100) ([2]; Thiophene analogues table) | MIC (E. coli; Escherichia coli, planktonic, Thiophene analogues table, read-out: MIC E. coli Plank) | MIC (C. jejuni; Campylobacter jejuni, Thiophene analogues table, read-out: MIC C. jejuni) | MIC S. epidermidis Biofilm (S. epidermidis biofilm; Thiophene analogues table) | MIC (E. coli biofilm; Escherichia coli, Thiophene analogues table, read-out: MIC E. coli Biofilm) | SMILES | MIC (C. difficile [1]; [4]) | MIC (MRSA; [5]) | MIC (H. pylori; [6]) | PFOR inhibition relative to nitazoxanide (=100) [2] | MIC (E. coli; [7]) | MIC (S. epidermidis) | MIC (C. jejuni; [8]) | MIC (μM) S. epidermidis Biofilm (S. epidermidis biofilm) | MIC (E. coli biofilm; [9]) | Disk Diffusion (%) C. difficile (C. difficile [3]) | Disk Diff (%) C. difficile (C. difficile [3]; Nitazoxanide = 100, Thiophene analogues table) |
| --- | --- | --- | --- | --- | --- | --- | --- | --- | --- | --- | --- | --- | --- | --- | --- | --- | --- | --- | --- |
|  |  |  |  |  |  |  |  | COc1cccc(C(=O)Nc2ncc([N+](=O)[O-])s2)c1 [VPC161193] | 28.6 µM (≈ 7.99 µg/mL) | 14.3 µM (≈ 3.99 µg/mL) | 1.3 µM (≈ 0.363 µg/mL) | 82% | 114.6 µM (≈ 32 µg/mL) | 28.6 µM (≈ 7.99 µg/mL) | 7.2 µM (≈ 2.01 µg/mL) | 57.3 µM (≈ 16 µg/mL) | 114.6 µM (≈ 32 µg/mL) | 73 ± 1% |  |
|  |  |  |  |  |  |  |  | O=C(Nc1ncc([N+](=O)[O-])s1)C1CCCCC1 [VPC16a1010] | 62.6 µM (≈ 16 µg/mL) | 125.2 µM (≈ 32 µg/mL) | 0.7 µM (≈ 0.179 µg/mL) | 93% | 125.2 µM (≈ 32 µg/mL) | 31.3 µM (≈ 7.99 µg/mL) | 11.4 µM (≈ 2.91 µg/mL) |  | 31.3 µM (≈ 7.99 µg/mL) | 53 ± 3% |  |
|  |  |  |  |  |  |  |  | COc1cc([N+](=O)[O-])ccc1C(=O)Nc1ncc([N+](=O)[O-])s1 [VPC161093] | 98.7 µM (≈ 32 µg/mL) | 98.7 µM (≈ 32 µg/mL) | 0.6 µM (≈ 0.195 µg/mL) | 115% | 98.7 µM (≈ 32 µg/mL) | 12.3 µM (≈ 3.99 µg/mL) | 9.3 µM (≈ 3.02 µg/mL) | 12.3 µM (≈ 3.99 µg/mL) | 98.7 µM (≈ 32 µg/mL) |  |  |
| 31.3 µM (≈ 7.99 µg/mL) | 15.7 µM (≈ 4.01 µg/mL) | 2.9 µM (≈ 0.74 µg/mL) | 88% | 125 µM (≈ 32 µg/mL) | 2.9 µM (≈ 0.74 µg/mL) | 62.7 µM (≈ 16 µg/mL) | 125 µM (≈ 32 µg/mL) | O=C(Nc1ncc([N+](=O)[O-])s1)c1cccs1 [VPC161195, N-(5-Nitrothiazol-2-yl)thiophene-2-carboxamide] |  |  |  |  |  |  |  |  |  |  | 97% |
